Results published in patent US20250230193A1, “CYCLIC COMPOUND HAVING SELECTIVE KRAS INHIBITORY EFFECT ON HRAS AND NRAS” (CHUGAI SEIYAKU KABUSHIKI KAISHA, priority 2022, published 2025).

What was measured:
[1] = molecular target: GDP-bound NRAS wild-type protein (Homo sapiens, UniProt P01111); test: Binding to NRAS by surface plasmon resonance (SPR), Single Cycle Kinetics; conditions: SPR; for NRAS/KRAS (ratio of KD value for NRAS to KD value for KRAS) / NRAS/KRAS (ratio of KD value with respect to NRAS to KD value with respect to KRAS): GDP-bound NRAS wild-type vs GDP-bound KRAS wild-type
GDP-bound NRAS wild-type protein, sequence (P01111 whole entry): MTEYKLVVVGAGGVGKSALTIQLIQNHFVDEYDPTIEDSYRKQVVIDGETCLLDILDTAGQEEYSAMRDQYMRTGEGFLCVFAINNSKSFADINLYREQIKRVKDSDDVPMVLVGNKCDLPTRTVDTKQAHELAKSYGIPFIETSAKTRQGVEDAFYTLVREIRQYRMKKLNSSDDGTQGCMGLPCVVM

[2] = molecular target: GDP-bound HRAS wild-type protein (Homo sapiens, UniProt P01112); test: Binding to HRAS by surface plasmon resonance (SPR), Single Cycle Kinetics; conditions: SPR; for HRAS/KRAS (ratio of KD value for HRAS to KD value for KRAS) / HRAS/KRAS (ratio of KD value with respect to HRAS to KD value with respect to KRAS): GDP-bound HRAS wild-type vs GDP-bound KRAS wild-type
GDP-bound HRAS wild-type protein, sequence (P01112 whole entry): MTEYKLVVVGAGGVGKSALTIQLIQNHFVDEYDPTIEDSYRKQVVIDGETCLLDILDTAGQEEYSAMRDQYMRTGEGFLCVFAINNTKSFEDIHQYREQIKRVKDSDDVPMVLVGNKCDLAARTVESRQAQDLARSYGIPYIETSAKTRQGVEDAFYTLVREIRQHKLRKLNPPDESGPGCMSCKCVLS

SMILES: CCC[C@H]1C(=O)N[C@@H]([C@@H](C)CC)C(=O)N2CCC[C@H]2C(=O)N(C)[C@H]2C/C=C\CCN(C2=O)[C@@H](Cc2ccc(C)cc2)C(=O)N(C)CC(=O)N[C@@H](CCc2cc(F)c(C(F)(F)F)c(F)c2)C(=O)N2C[C@H](OCC)C[C@H]2C(=O)N(C)C2(CCC2)C(=O)N(C)[C@@H](C2CCCC2)C(=O)N(C)[C@H](C(=O)N2CCCC2)CC(=O)N1C [PP3117, (1S,4S,10S,13S,17S,20S,26S,28R,32S,38S,42Z)-20-cyclopentyl-32-[2-[3,5-difluoro-4-(trifluoromethyl)phenyl]ethyl]-28-ethoxy-2,14,18,21,24,36-hexamethyl-10-[(1S)-1-methylpropyl]-13-propyl-38-(p-tolylmethyl)-17-(pyrrolidine-1-carbonyl)spiro[2,8,11,14,18,21,24,30,33,36,39-undecazatetracyclo[37.5.1.0^4,8.0^26,30]pentatetracont-42-ene-23,1′-cyclobutane]-3,9,12,15,19,22,25,31,34,37,45-undecone]
- NRAS/KRAS (ratio of KD value with respect to GDP-bound NRAS wild-type protein to KD value with respect to KRAS) ([1]; GDP-bound wild-type proteins): A (a compound having 10 or more and less than 20 is denoted as A)
- HRAS/KRAS (ratio of KD value with respect to GDP-bound HRAS wild-type protein to KD value with respect to KRAS) ([2]; GDP-bound wild-type proteins): A (a compound having 10 or more and less than 20 is denoted as A)

SMILES: CCCO[C@@H]1C[C@H]2C(=O)NC3(CC(C)(C)C3)C(=O)N(C)[C@@H](C3CCCC3)C(=O)N(C)[C@H](C(=O)N(C)C)CC(=O)N(C)[C@H]3CCCCc4ccc(cc4)C[C@@H](C(=O)N(C)CC(=O)N[C@@H](CCc4ccc(C(F)(F)F)c(OC)c4)C(=O)N2C1)N1CC/C=C\C[C@@H](C1=O)N(C)C(=O)CN(C1CC1)C(=O)[C@H]([C@@H](C)CC)NC3=O [PP3082]
- NRAS/KRAS (ratio of KD value with respect to GDP-bound NRAS wild-type protein to KD value with respect to KRAS) ([1]; GDP-bound wild-type proteins): B (a compound having 3 or more and less than 10 is denoted as B)
- HRAS/KRAS (ratio of KD value with respect to GDP-bound HRAS wild-type protein to KD value with respect to KRAS) ([2]; GDP-bound wild-type proteins): B (a compound having 3 or more and less than 10 is denoted as B)

SMILES: CC[C@H](C)[C@@H]1NC(=O)[C@H](CC(C)C)N(C)C(=O)C[C@@H](C(=O)N(C)CC)N(C)C(=O)[C@H](C2CCCC2)N(C)C(=O)C2(CC(C)(C)C2)NC(=O)[C@@H]2C[C@@H](F)CN2C(=O)[C@H](CCc2cc(F)c(C(F)(F)F)c(F)c2)NC(=O)CN(C)C(=O)[C@H](Cc2ccc(C(F)(F)F)cc2)N2CC/C=C\C[C@@H](C2=O)N(C)C(=O)CN(C)C1=O [PP1694]
- NRAS/KRAS (ratio of KD value for NRAS to KD value for KRAS) ([1]; KD ratio): A (a compound having 10 or more and less than 20 is denoted as A)
- HRAS/KRAS (ratio of KD value for HRAS to KD value for KRAS) ([2]; KD ratio): A (a compound having 10 or more and less than 20 is denoted as A)

SMILES: CCO[C@@H]1C[C@H]2C(=O)NC3(CC(C)(C)C3)C(=O)N(C)[C@@H](C(CC)CC)C(=O)N(C)[C@H](C(=O)N(C)C)CC(=O)N(C)[C@@H](CC3CC3)C(=O)N[C@@H]([C@@H](C)CC)C(=O)N(C)CC(=O)N(C)[C@H]3C/C=C\CCN(C3=O)[C@@H](Cc3ccc(C(F)(F)F)cc3)C(=O)N(C)CC(=O)N[C@@H](CCc3ccc(C(F)(F)F)c(OC)c3)C(=O)N2C1 [PP2155]
- NRAS/KRAS (ratio of KD value with respect to NRAS to KD value with respect to KRAS) [1]: A (a compound having 10 or more and less than 20 is denoted as A)
- HRAS/KRAS (ratio of KD value with respect to HRAS to KD value with respect to KRAS) [2]: B (a compound having 3 or more and less than 10 is denoted as B)

SMILES: CCO[C@@H]1C[C@H]2C(=O)NC3(CC(C)(C)C3)C(=O)N(C)[C@@H](C3CCCC3)C(=O)N(C)[C@H](C(=O)N(C)C)CC(=O)N(C)[C@@H](CC3CC3)C(=O)N[C@@H]([C@@H](C)CC)C(=O)N(C)CC(=O)N(C)[C@H]3C/C=C\CCN(C3=O)[C@@H](Cc3ccc(C(F)(F)F)cc3)C(=O)N(C)CC(=O)N[C@@H](CCc3cc(F)c(Cl)c(F)c3)C(=O)N2C1 [PP1759]
- NRAS/KRAS (ratio of KD value for NRAS to KD value for KRAS) ([1]; KD ratio): A (a compound having 10 or more and less than 20 is denoted as A)
- HRAS/KRAS (ratio of KD value for HRAS to KD value for KRAS) ([2]; KD ratio): A (a compound having 10 or more and less than 20 is denoted as A)

SMILES: CCO[C@@H]1C[C@H]2C(=O)NC3(CCC3)C(=O)N(C)[C@@H](C3CCCC3)C(=O)N[C@H](C)CC(=O)N(C)[C@@H](CC)C(=O)N[C@@H]([C@@H](C)CC)C(=O)N(C)CC(=O)N(C)[C@H]3C/C=C\CCN(C3=O)[C@@H](Cc3ccc(C(F)(F)F)cc3)C(=O)N(C)CC(=O)N[C@@H](CCc3cc(F)c(C(F)(F)F)c(F)c3)C(=O)N2C1 [PP1098]
- NRAS/KRAS (ratio of KD value with respect to NRAS to KD value with respect to KRAS) ([1]; KD ratio): B (a compound having 3 or more and less than 10 is denoted as B)
- HRAS/KRAS (ratio of KD value with respect to HRAS to KD value with respect to KRAS) ([2]; KD ratio): B (a compound having 3 or more and less than 10 is denoted as B)

SMILES: CCO[C@@H]1C[C@H]2C(=O)NC3(CCC3)C(=O)N(C)[C@@H](C3CCCC3)C(=O)N(C)[C@H](C(=O)N3CCOCC3)CC(=O)N(C)[C@@H](CC(C)C)C(=O)N[C@@H]([C@@H](C)CC)C(=O)N(C)CC(=O)N(C)[C@H]3CCCCN(C3=O)[C@@H](Cc3ccc(C(F)(F)F)cc3)C(=O)N(C)CC(=O)N[C@@H](CCc3cc(F)c(C(F)(F)F)c(F)c3)C(=O)N2C1 [PP0578]
- NRAS/KRAS (ratio of KD value with respect to GDP-bound NRAS wild-type protein to KD value with respect to KRAS) [1]: B (a compound having 3 or more and less than 10 is denoted as B)
- HRAS/KRAS (ratio of KD value with respect to GDP-bound HRAS wild-type protein to KD value with respect to KRAS) [2]: B (a compound having 3 or more and less than 10 is denoted as B)
